From patent publication US20210161189A1, “MONOESTER SUGAR DERIVATIVES AS FLAVOR MODIFIERS” (Firmenich SA, priority 2018, published 2021)

Assays:
[1] = biological target: T1, β-Lactoglobulin layer (Bos taurus, UniProt P02754); test: QCM-D mass adsorption of BWAT Raspberry water films on a protein layer; type: physicochemical; conditions: for mass/area: mass absorption on protein layer
T1 sequence (P02754 17-178): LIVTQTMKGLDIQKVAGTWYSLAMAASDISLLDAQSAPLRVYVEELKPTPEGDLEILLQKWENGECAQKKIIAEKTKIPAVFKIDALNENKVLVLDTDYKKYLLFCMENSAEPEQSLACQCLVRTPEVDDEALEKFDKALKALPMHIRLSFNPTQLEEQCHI
Source text: Quartz Crystal Microbalance with Dissipation monitoring (QCM-D) is a real-time, nanoscale technique for monitoring and characterizing thin films on surfaces as well for analyzing surface phenomena including thin film formation, adsorption, desorption, molecular interactions, reactions and structural properties. In this way, the QCM operates as a very sensitive balance.
A QCM sensor consists of a thin quartz disc sandwiched between a pair of electrodes. Due to the piezoelectric properties of quartz, it is possible to excite the crystal to oscillation by applying an AC voltage across its electrodes. Normally the electrodes are made of gold, which can be coated with a wide range of different materials. The resonance frequency (f) of the sensor depends on the total oscillating mass, including water coupled to the oscillation. When a thin film is attached to the sensor, the frequency decreases. If the film is thin and rigid the decrease in frequency is proportional to the mass of the film. Frequency monitoring gives information about mass changes and thickness of adsorbed film. Adsorbed films dampen the sensor's oscillation. […] Therefore dissipation is related to the rigidity of the adsorbed film.
This technique was used to analyse the properties of adsorbed BWAT Raspberry water films on a β-Lactoglobulin layer in order to compare the obtained physico-chemical data to the sensory data mentioned beforehand. β-Lactoglobulin was used in order to mimic the protein layer in the oral cavity.
The measurements were done as duplicates. First a protein layer was adsorbed on the quartz crystal. As soon as equilibrium is obtained, the excessive protein layer was rinsed with Millipore water in order to create a homogenous protein monolayer. Ensuing, the Raspberry water was left to rinse over the protein layer—frequency changes and energy dissipation were monitored during a time lapse of 10 min. A last rinsing step with Millipore was conducted.
To understand the role of glucose-6-O-octanoate (G60) as astringency/bitterness modulator the following solutions were investigated on their adsorption behavior.

[2] = test system: sensory panel; test: Taste modifier properties in model systems (sensory panel of 15 persons, with/without noseclip); type: in vivo, human; conditions: 100 ppm; for Sour taste modulation effect: without nose clip
Procedure: The sensory properties of various compositions comprising a monoester derivative of glucose were tested in various model systems, outlined in Table 14 below. [table] FIGS. 12 to 18 report the sweetness modifier properties of each of the following compounds (tested at 100 ppm in the various mode systems described above): glucose-6-O-octanoate, glucose-6-O-acetate, glucose-6-O-hexanoate, glucose-6-O-decanoate, glucose-6-O-hexadecanoate, glucose-6-O-oleate and glucose-6-O-oleyl derivative. The sensory properties were evaluated by a sensory panel consisting of15 persons, where the properties were evaluated with the subjects wearing a noseclip (With NC), and without a noseclip (Without NC). The subjects evaluate the perceived intensities of different sensory attributes on a linear scale (“0” note intense to “10” very intense) for the corresponding model mixtures without and with the compound at 100ppm. The differences of perceived intensities between the model mixtures with and without the compound are represented for each attribute. A statistical data treatment (unilateral paired student test) is achieved on each attribute to conclude on a significant or not significant taste modulation effect of the compound.

- mass/area ([1]; BWAT w/ 200 ppm G60): 1257 ng/cm^2
- mass/area ([1]; BWAT w/ 1000 ppm G60): 1194 ng/cm^2
SMILES: CCCCCCCC(=O)OC[C@@H](O)[C@@H](O)[C@H](O)[C@@H](O)C=O [glucose-6-O-octanoate]
- Mass adsorption versus control sample ([1]; BWAT raspberry water in presence of G60): higher mass adsorption compared to the control sample
- Amount of rinsed away mass ([1]; over the 10 min of mass adsorption monitoring, dependence on G60 concentration): The higher the G60 concentration the lower is the amount of rinsed away mass
- Sweet taste modulation effect ([2]; SG95 model mixture, without and with nose clip): significant sweet enhancing effects
- Round/thick/mouth coating modulation effect ([2]; beverage grapefruit model, with nose clip, significance 95%): significant round/thick/mouth coating enhancing effect
- Sour taste modulation effect ([2]; beverage grapefruit model, significance 95%): significant sour masking effect
- Sweet taste modulation effect ([2]; semi-skimmed milk+sucrose model mixture, without and with nose clip): significant sweet enhancing effects
- Sweet taste modulation effect ([2]; stevia-sour model, with nose clip, significance 95%): significant sweet masking effect
- Sweet taste modulation effect ([2]; sucrose model mixture): significant sweet enhancing effects
- Sour taste modulation effect ([2]; sweet-sour model mixture, significance 95%): significant sour masking effect
